Data reported in paper PMC6957260 (European journal of medicinal chemistry, 2013).

What was measured:
[1] = molecular target: T1, rat TRPV1 (Rattus norvegicus, UniProt O35433); experiment: functional 45Ca2+ uptake assay, agonism, rat TRPV1 in CHO cells; format: cell-based; conditions: for fold less potency for agonism compared to the parent compound: rat TRPV1, parents 2 and 3, respectively
[2] = molecular target: human TRPV1 (Homo sapiens, UniProt Q8NER1); format: cell-based
[3] = system: hTRPV1; conditions: hTRPV1 in HEK-293 cells, cited from earlier work; for EC50: read-out: agonism EC50
[4] = molecular target: T1, rat TRPV1; experiment: competitive binding assay with [3H]RTX, rat TRPV1 in CHO cells; conditions: parents 2 and 3, respectively
[5] = molecular target: T1, rat TRPV1; format: cell-based
[6] = molecular target: T1, rat TRPV1; conditions: cited from earlier work

T1 sequence (O35433 whole entry): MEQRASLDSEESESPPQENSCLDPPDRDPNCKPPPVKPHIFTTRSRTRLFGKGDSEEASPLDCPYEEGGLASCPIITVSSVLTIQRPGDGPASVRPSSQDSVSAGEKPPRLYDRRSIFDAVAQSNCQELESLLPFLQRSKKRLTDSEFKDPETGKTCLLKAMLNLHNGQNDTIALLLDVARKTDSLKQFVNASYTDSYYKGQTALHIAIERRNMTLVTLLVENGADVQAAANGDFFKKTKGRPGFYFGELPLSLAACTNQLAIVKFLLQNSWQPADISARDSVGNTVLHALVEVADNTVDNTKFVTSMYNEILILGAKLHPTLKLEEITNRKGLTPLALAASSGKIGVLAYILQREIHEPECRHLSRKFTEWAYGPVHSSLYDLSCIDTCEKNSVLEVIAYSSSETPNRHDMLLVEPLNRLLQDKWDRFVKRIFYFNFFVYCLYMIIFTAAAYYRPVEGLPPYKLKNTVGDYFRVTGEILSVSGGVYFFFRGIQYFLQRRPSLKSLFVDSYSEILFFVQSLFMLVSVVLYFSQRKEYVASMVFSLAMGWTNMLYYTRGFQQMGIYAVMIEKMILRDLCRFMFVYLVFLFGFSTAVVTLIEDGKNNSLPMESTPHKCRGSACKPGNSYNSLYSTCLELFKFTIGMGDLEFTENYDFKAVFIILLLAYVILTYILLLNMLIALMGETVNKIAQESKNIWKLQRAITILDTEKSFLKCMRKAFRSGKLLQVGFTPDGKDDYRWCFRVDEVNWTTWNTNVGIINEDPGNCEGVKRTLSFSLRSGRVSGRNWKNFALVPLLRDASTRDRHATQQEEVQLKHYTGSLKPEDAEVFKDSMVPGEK
Chain of human TRPV1 (Q8NER1 whole entry): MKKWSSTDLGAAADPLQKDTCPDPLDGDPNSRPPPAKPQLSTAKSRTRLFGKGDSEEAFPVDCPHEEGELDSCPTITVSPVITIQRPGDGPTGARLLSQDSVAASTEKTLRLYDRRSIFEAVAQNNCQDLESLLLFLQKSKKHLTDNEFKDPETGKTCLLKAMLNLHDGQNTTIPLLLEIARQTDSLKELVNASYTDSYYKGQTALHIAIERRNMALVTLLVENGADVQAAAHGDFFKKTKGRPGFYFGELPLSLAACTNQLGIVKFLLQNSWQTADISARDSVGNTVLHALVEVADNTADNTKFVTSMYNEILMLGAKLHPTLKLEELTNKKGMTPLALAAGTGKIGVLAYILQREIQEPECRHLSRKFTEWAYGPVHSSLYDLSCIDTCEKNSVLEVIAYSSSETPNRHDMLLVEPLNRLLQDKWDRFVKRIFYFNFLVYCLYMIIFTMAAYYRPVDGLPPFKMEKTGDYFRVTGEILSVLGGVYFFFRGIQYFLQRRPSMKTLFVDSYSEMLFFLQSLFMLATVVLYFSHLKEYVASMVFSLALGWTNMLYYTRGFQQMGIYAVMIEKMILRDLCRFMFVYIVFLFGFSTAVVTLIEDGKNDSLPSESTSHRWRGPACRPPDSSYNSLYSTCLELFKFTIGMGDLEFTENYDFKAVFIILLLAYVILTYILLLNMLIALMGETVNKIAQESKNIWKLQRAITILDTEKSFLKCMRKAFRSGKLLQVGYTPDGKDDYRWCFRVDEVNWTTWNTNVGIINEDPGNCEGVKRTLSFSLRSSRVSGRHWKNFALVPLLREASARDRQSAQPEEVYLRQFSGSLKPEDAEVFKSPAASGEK

What does the source list for C=C(C)[C@]12C[C@@H](C)[C@@]34O[C@](Cc5ccccc5)(O[C@@H]1[C@@H]3C=C(COC(=O)Oc1cc(Cl)c(O)c(OC)c1)C[C@]1(O)C(=O)C(C)=C[C@@H]41)O2 [Compound 58]?
mean % of agonism relative to capsaicin [1]: a The mean % of agonism relative to capsaicin: 13% for 58, 89% for 63, 83% for 64.; mean % of agonism relative to capsaicin [2]: a The mean % of agonism relative to capsaicin: 52% for 58, 90% for 64.

With C=C(C)[C@]12C[C@@H](C)[C@@]34O[C@](Cc5ccccc5)(O[C@@H]1[C@@H]3C=C(COC(=O)Oc1cc(F)c(N)c(OC)c1)C[C@]1(O)C(=O)C(C)=C[C@@H]41)O2 [Compound 64] as the compound, how does the “mean % of agonism relative to capsaicin” value [2] read?
Its value is “a The mean % of agonism relative to capsaicin: 52% for 58, 90% for 64”.

For C=C(C)[C@]12C[C@@H](C)[C@@]34O[C@](Cc5ccccc5)(O[C@@H]1[C@@H]3C=C(COC(=O)Cc1ccc(O)c(OC)c1)C[C@]1(O)C(=O)C(C)=C[C@@H]41)O2 [Compound 1, Resiniferatoxin, reference compound], which EC50 [3] is on record?
Its EC50 is 0.019 nM.

With C=C(C)[C@]12C[C@@H](C)[C@@]34O[C@](Cc5ccccc5)(O[C@@H]1[C@@H]3C=C(COC(=O)Oc1ccc(N)c(OC)c1)C[C@]1(O)C(=O)C(C)=C[C@@H]41)O2 [Compound 62] as the compound, how does the “fold less potency for agonism compared to the parent compound” value [1] read?
Its value is 4 fold.

What about the “fold less potency in binding affinity compared to the parent compound” value [4] of the same compound?
Its value is 4.5 fold.

Which results are given for C=C(C)[C@]12C[C@@H](C)[C@@]34O[C@](Cc5ccccc5)(O[C@@H]1[C@@H]3C=C(COC(=O)Oc1cc(I)c(O)c(OC)c1)C[C@]1(O)C(=O)C(C)=C[C@@H]41)O2 [Compound 60]?
fold more potent than RTX (agonism) [3]: ca. 4 fold; EC50 [3]: 0.0047 nM

For C=C(C)[C@]12C[C@@H](C)[C@@]34O[C@](Cc5ccccc5)(O[C@@H]1[C@@H]3C=C(COC(=O)Oc1cc(Br)c(N)c(OC)c1)C[C@]1(O)C(=O)C(C)=C[C@@H]41)O2 [Compound 66], which “fold more potent than I-RTX (antagonism)” value [5] is on record?
Its value is “ca. 5 fold”.

With C=C(C)[C@]12C[C@@H](C)[C@@]34O[C@](Cc5ccccc5)(O[C@@H]1[C@@H]3C=C(COC(=O)Oc1cc(Cl)c(N)c(OC)c1)C[C@]1(O)C(=O)C(C)=C[C@@H]41)O2 [Compound 65] as the compound, how does the “fold more potent than I-RTX (antagonism)” value [5] read?
The value was “ca. 5 fold”.

With C=C(C)[C@@]12C[C@@H](C)C34OC(Cc5ccccc5)(OC1[C@@H]3C=C(COC(=O)Cc1cc(Br)c(N)c(OC)c1)C[C@]1(O)C(=O)C(C)=C[C@@H]41)O2 (some centres unmarked) [5-bromo-4-amino RTX] as the compound, how does the “fold more potent than 5′-iodo RTX (antagonism)” value [6] read?
Its value is 4.5 fold.

What does the source list for C=C(C)[C@]12C[C@@H](C)[C@@]34O[C@](Cc5ccccc5)(O[C@@H]1[C@@H]3C=C(COC(=O)Oc1ccc(NS(C)(=O)=O)c(OC)c1)C[C@]1(O)C(=O)C(C)=C[C@@H]41)O2 [Compound 63]?
fold less potency for agonism compared to the parent compound [1]: 40 fold; fold less potency in binding affinity compared to the parent compound [4]: 5.5 fold

With C=C(C)[C@]12C[C@@H](C)[C@@]34O[C@](Cc5ccccc5)(O[C@@H]1[C@@H]3C=C(COC(=O)Oc1cc(F)c(O)c(OC)c1)C[C@]1(O)C(=O)C(C)=C[C@@H]41)O2 [Compound 57] as the compound, how does the “fold less potent than RTX (functional activity, agonism)” value ([1]; rTRPV1) read?
The value was “ca. 5 fold”.
